Results from patent US11566007B2, “Ras inhibitors” (Revolution Medicines, Inc., priority 2019, dated 2023).
Several values for one entry are separate records, joined by “and”; a condition that tells them apart may be missing. Equal entries are not always repeated. Where two headings read alike, the source gives them in different places.

Columns and labels:
[1] = system: NCI-H358 cells (K-Ras G12C); experiment: Potency assay: pERK in NCI-H358 cells; format: cell-based, human; details: H358 KRAS G12C, read-out: pERK EC50
In short: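 pERK decrease read by AlphaLISA SureFire p-ERK1/2 or In-Cell Western after 4 h compound exposure at 37 °C, 5% CO2.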

NCI-H358 (K-Ras G12C) = experiment: CellTiter-Glo cell viability assay, NCI-H358; format: cell-based, human; details: NCI-H358, 5-day treatment, class symbols, read-out: Additional H358 Cell Viability assay data (K-Ras G12C, IC50)
In short: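 Cells seeded, compound added directly, 5-day exposure. Plates to RT ~30 min, CellTiter-Glo luminescence read. Normalized to DMSO avg (x100); 4-parameter logistic fit.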

KRAS G12S = KRAS G12S (Homo sapiens (Human), UniProt P01116+P62937, G12S); experiment: Ras-Raf (BRAF RBD) disruption / FRET / MOA assay, KRAS G12S; format: biochemical; details: Ras-Raf disruption/FRET/MOA assay; class symbols; read-out: KRAS G12S FRET data IC50
In short: (§1)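 TR-FRET read-out: a drop in ratio relative to DMSO wells marks disruption of the Ras:RAF complex, reported as IC50. Compounds (3-fold series, 10 points, top 30 μM final) incubated 3 h at 25° C before Eu-anti-His 10 nM and APC-anti-GST 50 nM, 1.5 h more.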

KRAS G12D = KRAS G12D (Homo sapiens (Human), UniProt P01116+P62937, G12D); experiment: Ras-Raf (BRAF RBD) disruption / FRET / MOA assay, KRAS G12D; format: biochemical; details: Ras-Raf disruption/FRET/MOA assay; class symbols; read-out: KRAS G12D FRET data IC50
In short: as §1

KRAS Q61H = KRAS Q61H (Homo sapiens (Human), UniProt P01116+P62937, Q61H); experiment: Ras-Raf (BRAF RBD) disruption / FRET / MOA assay, KRAS Q61H; format: biochemical; details: Ras-Raf disruption/FRET/MOA assay; class symbols; read-out: KRAS Q61H FRET data IC50
Description: The purpose of this biochemical assay is to measure the ability of test compounds to facilitate ternary complex formation between a nucleotide-loaded Ras isoform and cyclophilin A; the resulting ternary complex disrupts binding to a BRAF^RBD construct, inhibiting Ras signaling through a RAF effector.
(§2) […]. Compound is present in plate wells as a 10-point 3-fold dilution series starting at a final concentration of 30 μM. After incubation at 25° C. for 3 hours, a mixture of Anti-His Eu-W1024 and anti-GST allophycocyanin is then added to assay sample wells at final concentrations of 10 nM and 50 nM, respectively, and the reaction incubated for an additional 1.5 hours. […] Compounds that facilitate disruption of a Ras:RAF complex are identified as those eliciting a decrease in the TR-FRET ratio relative to DMSO control wells.
Note—The following protocol describes a procedure for monitoring disruption of K-Ras G12C (GMP-PNP) binding to BRAF^RBD by a compound of the invention. This protocol may also be executed substituting other Ras proteins or nucleotides.
The purpose of this biochemical assay was to measure the ability of test compounds to facilitate ternary complex formation between a nucleotide-loaded K-Ras isoform and Cyclophilin A; the resulting ternary complex disrupts binding to a BRAF^RBD construct, inhibiting K-Ras signaling through a RAF effector. Data is reported as IC50 values.
as §2, with “Compound was” for “Compound is”, “allophycocyanin was” for “allophycocyanin is”, “a K-Ras:RAF” for “a Ras:RAF”, “complex were” for “complex are”

K-Ras G12C = K-Ras G12C (Homo sapiens (Human), UniProt P01116+P62937, G12C); experiment: Ras-Raf (BRAF RBD) disruption / FRET / MOA assay, KRAS G12C; format: biochemical; details: KRAS G12C; Ras-Raf disruption/FRET/MOA assay; read-out: IC50* KRAS G12C FRET data
In short: as §1

K-Ras G13C = K-Ras G13C (Homo sapiens (Human), UniProt P01116+P62937, G13C); experiment: Ras-Raf (BRAF RBD) disruption / FRET / MOA assay, KRAS G13C; format: biochemical; details: KRAS G13C; Ras-Raf disruption/FRET/MOA assay; read-out: IC50* KRAS G13C FRET data
In short: as §1

KRAS G12V = KRAS G12V (Homo sapiens (Human), UniProt P01116+P62937, G12V); experiment: Ras-Raf (BRAF RBD) disruption / FRET / MOA assay, KRAS G12V; format: biochemical; details: read-out: IC50* KRAS G12V FRET data
In short: as §1

KRAS WT = KRAS WT (Homo sapiens (Human), UniProt P01116+P62937); experiment: Ras-Raf (BRAF RBD) disruption / FRET / MOA assay, KRAS WT; format: biochemical; details: read-out: IC50* KRAS WT FRET data
In short: as §1

KRAS G13D = KRAS G13D (Homo sapiens (Human), UniProt P01116+P62937, G13D); experiment: Ras-Raf (BRAF RBD) disruption / FRET / MOA assay, KRAS G13D; format: biochemical; details: read-out: IC50* KRAS G13D FRET data
In short: as §1

NRAS G12C = NRAS G12C (Homo sapiens (Human), UniProt P01111+P62937, G12C); experiment: Ras-Raf (BRAF RBD) disruption / FRET / MOA assay, NRAS G12C; format: biochemical; details: read-out: IC50* NRAS G12C FRET data
In short: as §1

Chain of K-Ras G13C (P01116-2 other isoform, or with tags, fused parts or gaps G13C): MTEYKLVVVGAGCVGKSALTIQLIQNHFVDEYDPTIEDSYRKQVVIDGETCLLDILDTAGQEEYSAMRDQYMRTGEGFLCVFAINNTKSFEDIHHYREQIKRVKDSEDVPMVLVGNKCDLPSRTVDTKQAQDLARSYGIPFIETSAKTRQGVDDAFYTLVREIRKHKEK
Chain of K-Ras G13C (P62937 whole entry): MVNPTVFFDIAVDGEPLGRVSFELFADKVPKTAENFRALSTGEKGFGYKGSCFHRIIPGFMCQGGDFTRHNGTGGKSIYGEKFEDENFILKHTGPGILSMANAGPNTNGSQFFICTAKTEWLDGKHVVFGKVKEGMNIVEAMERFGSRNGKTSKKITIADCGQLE
Chain of KRAS G12V (P01116-2 other isoform, or with tags, fused parts or gaps G12V): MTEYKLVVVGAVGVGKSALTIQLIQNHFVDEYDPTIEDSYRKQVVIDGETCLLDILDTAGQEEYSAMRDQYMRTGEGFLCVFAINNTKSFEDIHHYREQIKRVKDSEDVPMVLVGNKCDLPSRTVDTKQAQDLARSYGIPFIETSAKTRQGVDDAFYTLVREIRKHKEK
Chain of KRAS G12V (P62937 whole entry): as the sequence (P62937 whole entry) above
Chain of KRAS G13D (P01116-2 other isoform, or with tags, fused parts or gaps G13D): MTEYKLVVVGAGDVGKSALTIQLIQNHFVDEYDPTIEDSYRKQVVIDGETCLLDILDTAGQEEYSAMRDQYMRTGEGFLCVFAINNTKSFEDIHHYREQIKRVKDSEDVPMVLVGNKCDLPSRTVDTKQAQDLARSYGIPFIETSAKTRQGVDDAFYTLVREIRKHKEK
Chain of KRAS G13D (P62937 whole entry): as the sequence (P62937 whole entry) above
Chain of KRAS G12S (P01116-2 other isoform, or with tags, fused parts or gaps G12S): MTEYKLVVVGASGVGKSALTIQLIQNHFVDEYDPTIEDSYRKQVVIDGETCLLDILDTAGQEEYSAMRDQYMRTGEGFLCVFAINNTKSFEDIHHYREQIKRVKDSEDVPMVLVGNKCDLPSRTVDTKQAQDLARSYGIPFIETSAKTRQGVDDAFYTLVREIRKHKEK
Chain of KRAS G12S (P62937 whole entry): as the sequence (P62937 whole entry) above
Chain of NRAS G12C (P01111 whole entry G12C): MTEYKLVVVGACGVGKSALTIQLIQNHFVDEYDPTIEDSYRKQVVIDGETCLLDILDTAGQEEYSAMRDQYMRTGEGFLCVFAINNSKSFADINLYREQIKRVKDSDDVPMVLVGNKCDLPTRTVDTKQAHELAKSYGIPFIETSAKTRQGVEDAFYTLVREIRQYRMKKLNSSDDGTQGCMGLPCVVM
Chain of NRAS G12C (P62937 whole entry): as the sequence (P62937 whole entry) above
Chain of KRAS Q61H (P01116-2 other isoform, or with tags, fused parts or gaps Q61H): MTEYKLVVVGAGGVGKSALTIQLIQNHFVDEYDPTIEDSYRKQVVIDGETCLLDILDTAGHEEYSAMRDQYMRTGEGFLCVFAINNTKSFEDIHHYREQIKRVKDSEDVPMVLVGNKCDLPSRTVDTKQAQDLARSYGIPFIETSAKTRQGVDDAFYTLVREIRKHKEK
Chain of KRAS Q61H (P62937 whole entry, canonical isoform): as the sequence (P62937 whole entry) above
Chain of K-Ras G12C (P01116-2 other isoform, or with tags, fused parts or gaps G12C): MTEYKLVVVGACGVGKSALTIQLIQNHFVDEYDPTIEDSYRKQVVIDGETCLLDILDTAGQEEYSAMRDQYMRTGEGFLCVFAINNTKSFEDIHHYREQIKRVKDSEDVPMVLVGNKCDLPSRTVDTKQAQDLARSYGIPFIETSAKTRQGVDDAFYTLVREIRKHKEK
Chain of K-Ras G12C (P62937 whole entry): as the sequence (P62937 whole entry) above
Chain of KRAS G12D (P01116-2 other isoform, or with tags, fused parts or gaps G12D): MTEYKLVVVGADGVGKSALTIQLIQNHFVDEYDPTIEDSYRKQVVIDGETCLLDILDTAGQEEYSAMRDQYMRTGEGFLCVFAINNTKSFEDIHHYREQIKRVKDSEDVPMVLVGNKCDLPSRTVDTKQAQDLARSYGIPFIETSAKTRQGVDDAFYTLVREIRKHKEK
Chain of KRAS G12D (P62937 whole entry): as the sequence (P62937 whole entry) above
Chain of KRAS WT (P01116-2 other isoform, or with tags, fused parts or gaps): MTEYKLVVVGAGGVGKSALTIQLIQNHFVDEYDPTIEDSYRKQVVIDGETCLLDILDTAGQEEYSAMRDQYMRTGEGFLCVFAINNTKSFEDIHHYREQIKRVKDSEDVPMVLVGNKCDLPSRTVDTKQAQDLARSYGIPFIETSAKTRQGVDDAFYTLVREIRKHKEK
Chain of KRAS WT (P62937 whole entry): as the sequence (P62937 whole entry) above

SMILES	EC50 [1] [nM]	IC50 (NCI-H358 (K-Ras G12C)) [nM]	IC50 (KRAS G12S)	IC50 (KRAS G12D)	IC50 (KRAS Q61H) [nM]	EC50 ([1]; Homo sapiens, NCI-H358) [nM]	IC50 (NCI-H358 (K-Ras G12C); Homo sapiens, NCI-H358, 120 h) [nM]	IC50 (K-Ras G12C)	IC50 (K-Ras G13C)	IC50 (KRAS G12V)	IC50 (KRAS WT)	IC50 (KRAS G13D)	IC50 (NRAS G12C)
C=CC(=O)N1CCN(C(=O)N(C)[C@H](C(=O)N[C@H]2Cc3nc(cs3)-c3ccc4c(c3)c(c(-c3cccnc3[C@H](C)OC)n4CC)CC(C)(C)COC(=O)[C@@H]3CCCN(N3)C2=O)C(C)C)CC1 (atropisomer, axis not shown) [Example A493]	< 5000	< 10	10 to 100 nM	100 to 1000 nM	10 to 100								
C=CC(=O)N1CC[C@H](C(=O)N(C)[C@H](C(=O)N[C@H]2Cc3cc(O)cc(c3)-c3cc(F)c4c(c3)c(c(-c3ccccc3CCOC)n4CC)CC(C)(C)COC(=O)[C@@H]3CCCN(N3)C2=O)C(C)C)C1 [Example A053]				> 10000 nM	1000 to 10000								
C=CC(=O)N1CC[C@H](C(=O)N(C)[C@H](C(=O)N[C@H]2Cc3cc(O)cc(c3)-c3ccc4c(c3)c(c(C3=C(COC)CCCC3)n4CC)CC(C)(C)COC(=O)[C@@H]3CCCN(N3)C2=O)C(C)C)C1 [Example A064]			100 to 1000 nM	> 10000 nM	100 to 1000								
C=CC(=O)N1CC[C@H](C(=O)N(C)[C@H](C(=O)N[C@H]2Cc3cc(O)cc(c3)-c3ccc4c(c3)c(c(-c3ccccc3N3CCOCC3)n4CC)CC(C)(C)COC(=O)[C@@H]3CCCN(N3)C2=O)C(C)C)C1 [Example A026]			> 10000 nM	> 10000 nM	1000 to 10000								
C=CC(=O)N1CC[C@H](C(=O)N(C)[C@H](C(=O)N[C@H]2Cc3cc(O)cc(c3)-c3ccc4c(c3)c(c(-c3cccnc3)n4CC)CC(C)(C)COC(=O)[C@@H]3CCCN(N3)C2=O)C(C)C)C1 [Example A045]			1000 to 10000 nM	> 10000 nM	100 to 1000								
C=CC(=O)N1CC[C@H](C(=O)N(C)[C@H](C(=O)N[C@H]2Cc3cc(O)cc(c3)-c3ccc4c(c3)c(c(-c3cncnc3)n4CC)CC(C)(C)COC(=O)[C@@H]3CCCN(N3)C2=O)C(C)C)C1 [Example A061]			1000 to 10000 nM	> 10000 nM	1000 to 10000								
C=CC(=O)N1CC[C@H](C(=O)N(C)[C@H](C(=O)N[C@H]2Cc3cc(O)cc(c3)-c3ccc4c(c3)c(c(-c3cccnc3N3CC(OC)C3)n4CC)CC(C)(C)COC(=O)[C@@H]3CCCN(N3)C2=O)C(C)C)C1 [Example A060]			1000 to 10000 nM	> 10000 nM	1000 to 10000								
C=CC(=O)N1CC[C@H](C(=O)N(C)[C@H](C(=O)N[C@H]2Cc3cc(O)cc(c3)-c3ccc4c(c3)c(c(-c3c(F)cccc3CCOC)n4CC)CC(C)(C)COC(=O)[C@@H]3CCCN(N3)C2=O)C(C)C)C1 [Example A025]			1000 to 10000 nM	> 10000 nM	1000 to 10000								
C=CC(=O)Nc1ncc(C(=O)N(C)[C@H](C(=O)N[C@H]2Cc3cccc(c3)-c3ccc4c(c3)c(c(-c3cccnc3[C@H](C)OC)n4CC)CC(C)(C)COC(=O)[C@@H]3CCCN(N3)C2=O)C(C)C)n1C (atropisomer, axis not shown) [Example A475]	< 5000		1000 to 10000 nM	> 10000 nM	100 to 1000								
C=CC(=O)N1CC[C@H](C(=O)N(C)[C@H](C(=O)N[C@H]2Cc3cc(O)cc(c3)-c3ccc4c(c3)c(c(-c3cncc(COC)c3)n4CC)CC(C)(C)COC(=O)[C@@H]3CCCN(N3)C2=O)C(C)C)C1 [Example A083]			100 to 1000 nM	> 10000 nM	100 to 1000								
C=CC(=O)N1CC[C@H](C(=O)N(C)[C@H](C(=O)N[C@H]2Cc3cc(O)cc(c3)-c3ccc4c(c3)c(c(-c3ccc5c(c3)OCCN5C)n4CC)CC(C)(C)COC(=O)[C@@H]3CCCN(N3)C2=O)C(C)C)C1 [Example A050]			1000 to 10000 nM	> 10000 nM	1000 to 10000								
C=CC(=O)N1CC[C@H](C(=O)N(C)[C@H](C(=O)N[C@H]2Cc3cccc(c3)-c3ccc4c(c3)c(c(-c3cccnc3[C@H](C)OC)n4CC)CC(C)(C)COC(=O)[C@@H]3CCCN(N3)C2=O)C2CC2)C1 (atropisomer, axis not shown) [Example A320]			1000 to 10000 nM	> 10000 nM		< 5000	10 to 100	100 to 1000 nM	1000 to 10000 nM	1000 to 10000 nM	1000 to 10000 nM	> 10000 nM	100 to 1000 nM
C=CC(=O)N1CC[C@H](C(=O)N(C)[C@H](C(=O)N[C@H]2Cc3cc(O)cc(c3)-c3ccc4c(c3)c(c(-c3cnccc3[C@H](CC)OC)n4CC)CC(C)(C)COC(=O)[C@@H]3CCCN(N3)C2=O)C(C)C)C1 (atropisomer, axis not shown) [Example A194]		< 10	100 to 1000 nM and 10 to 100 nM	1000 to 10000 nM and 100 to 1000 nM		< 5000	10 to 100	100 to 1000 nM and < 10 nM	10 to 100 nM and 1000 to 10000 nM	100 to 1000 nM and 10 to 100 nM	1000 to 10000 nM and 10 to 100 nM	100 to 1000 nM and 1000 to 10000 nM	100 to 1000 nM and < 10 nM
C=CC(=O)N1CC[C@H](C(=O)N(C)[C@H](C(=O)N[C@H]2Cc3csc(n3)-c3ccc4c(c3)c(c(-c3cc(N5CCN(C)CC5)cnc3[C@H](C)OC)n4CC(F)(F)F)CC(C)(C)COC(=O)[C@@H]3CCCN(N3)C2=O)C(C)C)C1 [Example A410]			100 to 1000 nM	1000 to 10000 nM		< 5000	< 10	10 to 100 nM	100 to 1000 nM	100 to 1000 nM	100 to 1000 nM	100 to 1000 nM	10 to 100 nM
CCn1c(-c2cccnc2COC)c2c3cc(ccc31)-c1cc(O)cc(c1)C[C@H](NC(=O)[C@@H](C(C)C)N(C)C(=O)[C@H]1CCN(C(=O)C#CCN3CCOCC3)C1)C(=O)N1CCC[C@H](N1)C(=O)OCC(C)(C)C2 [Example A200]			> 10000 nM	> 10000 nM		< 5000	100 to 1000	10 to 100 nM	1000 to 10000 nM	> 10000 nM	> 10000 nM	> 10000 nM	10 to 100 nM
CCn1c(-c2cccnc2)c2c3cc(ccc31)-c1csc(n1)C[C@H](NC(=O)[C@H](C(C)C)N(C)C(=O)[C@H]1CCN(C(=O)C#CCN3CCOCC3)C1)C(=O)N1CCC[C@H](N1)C(=O)OCC(C)(C)C2 [Example A190]			> 10000 nM	> 10000 nM		< 5000	100 to 1000	100 to 1000 nM	> 10000 nM	> 10000 nM	> 10000 nM	> 10000 nM	100 to 1000 nM
CCn1c(-c2cccnc2[C@H](C)OC)c2c3cc(ccc31)-c1cc(cc(C(F)F)c1)C[C@H](NC(=O)C(COC1CN(C(=O)C#CC(C)(C)N(C)C)C1)C(C)C)C(=O)N1CCC[C@H](N1)C(=O)OCC(C)(C)C2 (mixture of isomers) [Example A404]			> 10000 nM	> 10000 nM		< 5000	10 to 100	100 to 1000 nM	> 10000 nM	> 10000 nM	> 10000 nM	> 10000 nM	100 to 1000 nM
